Results on 3 compounds are retold here after PMC12108457, “Trimethylamine N-Oxide (TMAO) Acts as Inhibitor of Endothelial Nitric Oxide Synthase (eNOS) and Hampers NO Production and Acetylcholine-Mediated Vasorelaxation in Rat Aortas” (Antioxidants, 2025).

Assay type in all cases: cell-based
Experiment [1] deals with T1, endothelial nitric oxide synthase (eNOS) (Homo sapiens, UniProt P29474).
T1 construct: gene NOS3
T1 sequence (P29474 2-1203): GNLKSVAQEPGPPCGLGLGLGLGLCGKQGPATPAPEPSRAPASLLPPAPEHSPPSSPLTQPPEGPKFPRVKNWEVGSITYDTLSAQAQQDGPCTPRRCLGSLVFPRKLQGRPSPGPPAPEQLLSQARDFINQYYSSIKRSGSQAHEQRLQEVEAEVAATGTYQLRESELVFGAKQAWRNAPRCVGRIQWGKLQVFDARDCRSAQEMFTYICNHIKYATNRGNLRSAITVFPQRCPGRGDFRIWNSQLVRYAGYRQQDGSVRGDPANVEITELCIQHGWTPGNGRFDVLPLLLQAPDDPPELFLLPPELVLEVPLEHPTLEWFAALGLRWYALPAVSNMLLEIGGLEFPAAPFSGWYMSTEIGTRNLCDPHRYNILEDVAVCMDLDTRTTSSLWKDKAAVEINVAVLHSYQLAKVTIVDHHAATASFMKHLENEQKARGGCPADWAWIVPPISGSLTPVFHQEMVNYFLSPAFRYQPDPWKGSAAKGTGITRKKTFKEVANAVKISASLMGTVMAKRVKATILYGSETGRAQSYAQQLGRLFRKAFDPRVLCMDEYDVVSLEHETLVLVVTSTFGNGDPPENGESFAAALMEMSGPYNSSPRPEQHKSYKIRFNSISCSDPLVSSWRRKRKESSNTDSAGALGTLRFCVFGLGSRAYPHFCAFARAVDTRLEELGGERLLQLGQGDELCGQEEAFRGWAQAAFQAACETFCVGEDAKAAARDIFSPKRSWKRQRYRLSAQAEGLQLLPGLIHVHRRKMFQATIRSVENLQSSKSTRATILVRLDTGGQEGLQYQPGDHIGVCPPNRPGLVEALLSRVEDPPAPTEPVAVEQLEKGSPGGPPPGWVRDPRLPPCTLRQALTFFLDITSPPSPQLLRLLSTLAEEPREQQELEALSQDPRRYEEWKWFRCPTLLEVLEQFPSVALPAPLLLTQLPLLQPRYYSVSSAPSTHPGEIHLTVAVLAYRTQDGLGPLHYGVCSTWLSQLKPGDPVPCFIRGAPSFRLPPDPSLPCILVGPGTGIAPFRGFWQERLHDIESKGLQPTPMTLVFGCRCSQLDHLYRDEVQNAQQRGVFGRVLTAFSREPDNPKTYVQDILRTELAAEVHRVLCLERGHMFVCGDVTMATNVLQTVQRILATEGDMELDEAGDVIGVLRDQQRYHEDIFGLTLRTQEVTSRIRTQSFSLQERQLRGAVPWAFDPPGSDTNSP
The experiment can be described thus: NO (DAF-FM) and ROS production in HUVECs at […] L-NAME.

The target in experiment [2] is T1, endothelial nitric oxide synthase (eNOS). The experiment can be described thus: conversion of deuterated L-arginine to L-citrulline in HUVECs by MS; […] L-arginine rescues NO production.
Experiment [3] shares this target. The experiment can be described thus: NO production (DAF-FM) in HUVECs with L-arginine competition; deuterated L-arginine to L-citrulline conversion by MS.

For `COC(=O)[C@@H](N)CCCNC(N)=N[N+](=O)[O-]` [L-NAME], in experiment [1], the “NO (DAF-FM) and ROS production in HUVECs at 1 mM L-NAME” value is recorded as “NO production is indeed eNOS-dependent, as proven by the eNOS inhibitor L-NAME, whose presence strongly abolishes NO production”. As for `N=C(N)NCCC[C@H](N)C(=O)O` [L-arginine], the “conversion of deuterated L-arginine to L-citrulline in HUVECs by MS; 20 mM L-arg” value in experiment [2] was “we measured the rate of L-arginine’s conversion to L-citrulline by using stable isotope labeling and mass spectrometry”.

In the case of `C[N+](C)(C)[O-]` [Trimethylamine N-oxide], in experiment [3], the midpoint of the response, the EC50, lay at 2500 ± 300 nM.

The term EC50 denotes the concentration at which the effect is half-maximal.
